Laboratory results reported in US6143325A, “Nefazodone dosage form” (priority 1999, dated 2000).
Where a name gives a salt, the structure may show the parent alone.

Experiments:
[1] = system: CYP2D6; settings: cited from earlier work
[2] = system: rodents; settings: in vivo; cited from earlier work
[3] = system: rats; settings: mediated through 5-HT2C or 5HT2B receptors; cited from earlier work
[4] = system: humans; settings: in vivo; cited from earlier work
[5] = cited from earlier work
[6] = cited from earlier work; remark: listed apart in the source
[7] = system: serotonin 5-HT2 receptors; settings: in vivo; cited from earlier work
[8] = system: serotonin re-uptake; settings: in vivo; cited from earlier work
[9] = system: monoamine oxidase; settings: cited from earlier work
[10] = relative to tricyclic antidepressants; cited from earlier work
[11] = system: cytochrome P450 (CPY) 3A4; settings: cited from earlier work
[12] = clinically effective doses of up to 450 mg three times a day; cited from earlier work
[13] = USP criteria; cited from earlier work
[14] = nefazodone and metabolite pharmacokinetics in human volunteers: ER v. IR; settings: plasma, po

## Clc1cccc(N2CCNCC2)c1 [mCPP, m-chlorophenylpiperazine]
[1]
  metabolism by CYP2D6: responsible for the metabolism of mCPP
[2]
  effects in rodents: anxiogenic-like properties, causes hypoactivity, hypophagia, oral dyskinesia, penile erection and hyperthermia
[3]
  hypoglycemic effect: dose-dependent hypoglycemic effect
[4]
  effects in humans: increase anxiety in humans (and can cause panic attacks), may precipitate migraine attacks in those susceptible to such attacks, can disrupt sleep, be hypophagic in humans also and may have psychotogenic effects

## CCc1nn(CCCN2CCN(c3cccc(Cl)c3)CC2)c(=O)n1CCOc1ccccc1 [Nefazodone, 2-[3-[4-(3-chlorophenyl)-1-piperazinyl]-propyl-]5-ethyl-2,4-dihydro-4-(2-phenoxy-ethyl)-3H-1,2,4-triazol-3-one hydrochloride]
[5]; in vivo
  first-pass metabolism: significant first-pass metabolism
[5]; plasma concentrations v. dose
  kinetics (dose proportionality): non-linear kinetics
[6]
  dissociation constant (pKa): 6.4
[7]
  effect on serotonin 5-HT2 receptors: blocks serotonin 5-HT2 receptors
[8]
  serotonin re-uptake inhibition: reversibly inhibits serotonin re-uptake
[9]
  monoamine oxidase inhibition: does not inhibit monoamine oxidase
[10]
  anticholinergic, antihistamine, alpha-adrenergic and sedative activity: decreased anticholinergic, antihistamine, alpha-adrenergic and sedative activity
[11]
  inhibition of CYP3A4: inhibits cytochrome P450 (CPY) 3A4
  metabolism by CYP3A4: metabolized by
[12]
  tolerability: well-tolerated
[13]
  solubility in water: sparingly soluble
[1]
  inhibition of CYP2D6: weak inhibitor of CYP2D6
[14]; 100 mg
  Tmax: 2 h
[14]; 200 mg
  Tmax: 5 h

## O=c1[nH]n(CCCN2CCN(c3cccc(Cl)c3)CC2)c(=O)n1CCOc1ccccc1 [Dione]
[11]
  metabolism by CYP3A4: responsible for the further metabolism

## CC(O)c1nn(CCCN2CCN(c3cccc(Cl)c3)CC2)c(=O)n1CCOc1ccccc1 (centres unmarked) [hydroxy-nef, hydroxynefazodone]
[11]
  metabolism by CYP3A4: responsible for the further metabolism
